Publication PMC6149898, “GPCR Modulation of Thieno[2,3-b]pyridine Anti-Proliferative Agents” (Molecules : A Journal of Synthetic Chemistry and Natural …, 2017)

Assays:
[1] = biological target: TRHR (Homo sapiens, UniProt P34981); experiment: gpcrMAX PathHunter beta-arrestin
[2] = biological target: BDKRB1 (Homo sapiens, UniProt P46663); experiment: gpcrMAX PathHunter beta-arrestin
[3] = biological target: SSTR1 (Homo sapiens, UniProt P30872); experiment: gpcrMAX PathHunter beta-arrestin
[4] = biological target: GHSR (Homo sapiens, UniProt Q92847); experiment: gpcrMAX PathHunter beta-arrestin
[5] = biological target: GPR120 (Homo sapiens, UniProt Q5NUL3); experiment: gpcrMAX PathHunter beta-arrestin
[6] = biological target: NMBR (Homo sapiens, UniProt P28336); experiment: gpcrMAX PathHunter beta-arrestin
Sequence of NMBR (P28336 whole entry): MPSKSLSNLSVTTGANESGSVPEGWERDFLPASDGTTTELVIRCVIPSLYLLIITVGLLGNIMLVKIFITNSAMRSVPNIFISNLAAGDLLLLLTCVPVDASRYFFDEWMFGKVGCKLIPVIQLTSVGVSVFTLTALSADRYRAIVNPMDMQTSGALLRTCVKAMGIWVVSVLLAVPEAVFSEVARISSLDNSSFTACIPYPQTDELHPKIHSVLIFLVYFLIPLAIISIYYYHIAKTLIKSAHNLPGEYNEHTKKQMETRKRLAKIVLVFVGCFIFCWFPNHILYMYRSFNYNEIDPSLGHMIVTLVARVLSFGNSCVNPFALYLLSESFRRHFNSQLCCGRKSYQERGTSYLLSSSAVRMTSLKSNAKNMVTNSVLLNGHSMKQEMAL

[7] = biological target: CALCRL-RAMP2 (Homo sapiens, UniProt O60895+Q16602); experiment: gpcrMAX PathHunter beta-arrestin
[8] = biological target: EBI2 (Homo sapiens, UniProt P32249); experiment: gpcrMAX PathHunter beta-arrestin
Sequence of EBI2 (P32249 whole entry): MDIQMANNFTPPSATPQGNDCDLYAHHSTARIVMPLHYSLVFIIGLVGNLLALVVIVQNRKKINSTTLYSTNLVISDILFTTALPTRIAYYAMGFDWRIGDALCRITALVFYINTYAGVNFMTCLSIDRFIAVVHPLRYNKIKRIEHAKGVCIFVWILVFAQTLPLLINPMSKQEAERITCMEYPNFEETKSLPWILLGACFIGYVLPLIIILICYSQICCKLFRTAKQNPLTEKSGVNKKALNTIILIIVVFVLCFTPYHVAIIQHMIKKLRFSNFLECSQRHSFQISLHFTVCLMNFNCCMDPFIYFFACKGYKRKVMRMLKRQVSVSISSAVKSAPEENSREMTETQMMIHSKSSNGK

[9] = test system: CO:COLO 205; design: method as in earlier work; conditions: NCI-60 panel; ref [4],[5],[6],[7]; cited from earlier work
[10] = biological target: GALR1 (Homo sapiens, UniProt P47211); experiment: gpcrMAX PathHunter beta-arrestin
Sequence of GALR1 (P47211 whole entry): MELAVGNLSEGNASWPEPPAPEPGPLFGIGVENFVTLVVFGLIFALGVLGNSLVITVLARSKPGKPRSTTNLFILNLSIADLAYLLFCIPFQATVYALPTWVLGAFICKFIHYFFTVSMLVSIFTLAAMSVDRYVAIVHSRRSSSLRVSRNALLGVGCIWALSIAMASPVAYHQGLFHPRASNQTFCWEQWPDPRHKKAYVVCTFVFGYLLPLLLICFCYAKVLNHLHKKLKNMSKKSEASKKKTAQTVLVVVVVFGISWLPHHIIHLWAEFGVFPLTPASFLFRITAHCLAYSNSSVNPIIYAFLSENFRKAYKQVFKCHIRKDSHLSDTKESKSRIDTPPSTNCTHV

[11] = biological target: PTGFR (Homo sapiens, UniProt P43088); experiment: gpcrMAX PathHunter beta-arrestin
[12] = biological target: AGTR1 (Homo sapiens, UniProt P30556); experiment: gpcrMAX PathHunter beta-arrestin
Sequence of AGTR1 (P30556 whole entry): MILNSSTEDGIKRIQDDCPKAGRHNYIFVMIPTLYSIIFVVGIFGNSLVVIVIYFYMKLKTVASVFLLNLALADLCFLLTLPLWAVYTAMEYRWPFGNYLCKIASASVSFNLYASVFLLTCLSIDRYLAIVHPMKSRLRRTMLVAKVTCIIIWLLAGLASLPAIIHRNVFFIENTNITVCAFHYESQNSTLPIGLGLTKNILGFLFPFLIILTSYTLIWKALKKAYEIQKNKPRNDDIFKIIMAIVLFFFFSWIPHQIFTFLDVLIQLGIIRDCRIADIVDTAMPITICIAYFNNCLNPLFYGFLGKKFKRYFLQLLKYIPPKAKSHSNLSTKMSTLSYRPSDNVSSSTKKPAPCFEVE

[13] = biological target: GPR109B (Homo sapiens, UniProt P49019); experiment: gpcrMAX PathHunter beta-arrestin
[14] = test system: ME:LOX IMVI; design: method as in earlier work; conditions: NCI-60 panel; ref [4],[5],[6],[7]; cited from earlier work
[15] = biological target: CCR8 (Homo sapiens, UniProt P51685); experiment: gpcrMAX PathHunter beta-arrestin
[16] = biological target: DRD3 (Homo sapiens, UniProt P35462); experiment: gpcrMAX PathHunter beta-arrestin
[17] = biological target: PTGER2 (Homo sapiens, UniProt P43116); experiment: gpcrMAX PathHunter beta-arrestin
Sequence of PTGER2 (P43116 whole entry): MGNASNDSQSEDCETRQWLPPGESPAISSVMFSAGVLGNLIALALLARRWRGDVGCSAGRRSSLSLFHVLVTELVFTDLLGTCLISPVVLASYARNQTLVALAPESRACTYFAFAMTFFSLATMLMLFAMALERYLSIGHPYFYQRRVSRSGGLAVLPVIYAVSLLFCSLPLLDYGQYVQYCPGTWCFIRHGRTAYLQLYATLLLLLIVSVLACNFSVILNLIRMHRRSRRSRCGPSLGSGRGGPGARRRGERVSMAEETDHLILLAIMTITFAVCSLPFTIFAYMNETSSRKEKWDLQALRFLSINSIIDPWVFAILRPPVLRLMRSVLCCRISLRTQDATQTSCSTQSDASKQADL

[18] = biological target: CCR4 (Homo sapiens, UniProt P51679); experiment: gpcrMAX PathHunter beta-arrestin
[19] = test system: LC:NCI-H322M; design: method as in earlier work; conditions: NCI-60 panel; ref [4],[5],[6],[7]; cited from earlier work
[20] = biological target: ADRB1 (Homo sapiens, UniProt P08588); experiment: gpcrMAX PathHunter beta-arrestin
[21] = biological target: FPR1 (Homo sapiens, UniProt P21462); experiment: gpcrMAX PathHunter beta-arrestin
[22] = biological target: CHRM3 (Homo sapiens, UniProt P20309); experiment: gpcrMAX PathHunter beta-arrestin
Sequence of CHRM3 (P20309 whole entry): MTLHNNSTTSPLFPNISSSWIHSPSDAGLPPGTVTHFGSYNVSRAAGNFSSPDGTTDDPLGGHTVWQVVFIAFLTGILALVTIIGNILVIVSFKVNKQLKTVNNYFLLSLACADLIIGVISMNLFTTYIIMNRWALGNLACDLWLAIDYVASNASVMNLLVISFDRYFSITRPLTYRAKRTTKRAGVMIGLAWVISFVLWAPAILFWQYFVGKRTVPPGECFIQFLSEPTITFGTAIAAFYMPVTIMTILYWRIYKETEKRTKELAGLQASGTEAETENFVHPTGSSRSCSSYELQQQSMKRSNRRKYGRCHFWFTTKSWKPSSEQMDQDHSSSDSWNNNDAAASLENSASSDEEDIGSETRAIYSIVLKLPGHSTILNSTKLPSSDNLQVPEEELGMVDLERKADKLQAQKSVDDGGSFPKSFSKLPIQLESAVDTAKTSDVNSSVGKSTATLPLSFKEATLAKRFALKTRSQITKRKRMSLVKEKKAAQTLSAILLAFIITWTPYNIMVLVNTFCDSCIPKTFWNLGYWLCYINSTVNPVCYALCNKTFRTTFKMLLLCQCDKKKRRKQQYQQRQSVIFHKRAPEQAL

[23] = biological target: CNR1 (Homo sapiens, UniProt P21554); experiment: gpcrMAX PathHunter beta-arrestin
[24] = biological target: AVPR2 (Homo sapiens, UniProt P30518); experiment: gpcrMAX PathHunter beta-arrestin
Sequence of AVPR2 (P30518 whole entry): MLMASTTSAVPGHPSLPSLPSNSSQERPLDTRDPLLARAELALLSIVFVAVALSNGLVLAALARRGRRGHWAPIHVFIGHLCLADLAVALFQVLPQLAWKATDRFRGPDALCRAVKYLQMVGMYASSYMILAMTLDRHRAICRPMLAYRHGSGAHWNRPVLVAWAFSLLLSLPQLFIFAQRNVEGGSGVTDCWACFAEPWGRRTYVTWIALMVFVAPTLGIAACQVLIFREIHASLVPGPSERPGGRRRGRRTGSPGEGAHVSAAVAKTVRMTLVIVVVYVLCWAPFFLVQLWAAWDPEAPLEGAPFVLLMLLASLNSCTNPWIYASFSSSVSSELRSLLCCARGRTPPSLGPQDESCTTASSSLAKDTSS

[25] = biological target: CRHR2 (Homo sapiens, UniProt Q13324); experiment: gpcrMAX PathHunter beta-arrestin
Sequence of CRHR2 (Q13324 whole entry): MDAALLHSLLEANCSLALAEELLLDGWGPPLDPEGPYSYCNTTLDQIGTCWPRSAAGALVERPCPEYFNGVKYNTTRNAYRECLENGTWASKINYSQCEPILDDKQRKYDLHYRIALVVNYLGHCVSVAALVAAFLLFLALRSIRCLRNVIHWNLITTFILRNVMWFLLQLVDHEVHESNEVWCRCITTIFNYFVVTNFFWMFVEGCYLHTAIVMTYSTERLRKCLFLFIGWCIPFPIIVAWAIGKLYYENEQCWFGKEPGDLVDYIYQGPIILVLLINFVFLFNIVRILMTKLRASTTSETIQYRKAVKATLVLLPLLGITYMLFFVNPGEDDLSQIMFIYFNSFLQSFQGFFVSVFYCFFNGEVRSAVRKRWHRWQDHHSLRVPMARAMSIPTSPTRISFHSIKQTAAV

[26] = biological target: GRPR (Homo sapiens, UniProt P30550); experiment: gpcrMAX PathHunter beta-arrestin
[27] = biological target: CCR5 (Homo sapiens, UniProt P51681); experiment: gpcrMAX PathHunter beta-arrestin
[28] = biological target: ADRB2 (Homo sapiens, UniProt P07550); experiment: gpcrMAX PathHunter beta-arrestin
Sequence of ADRB2 (P07550 whole entry): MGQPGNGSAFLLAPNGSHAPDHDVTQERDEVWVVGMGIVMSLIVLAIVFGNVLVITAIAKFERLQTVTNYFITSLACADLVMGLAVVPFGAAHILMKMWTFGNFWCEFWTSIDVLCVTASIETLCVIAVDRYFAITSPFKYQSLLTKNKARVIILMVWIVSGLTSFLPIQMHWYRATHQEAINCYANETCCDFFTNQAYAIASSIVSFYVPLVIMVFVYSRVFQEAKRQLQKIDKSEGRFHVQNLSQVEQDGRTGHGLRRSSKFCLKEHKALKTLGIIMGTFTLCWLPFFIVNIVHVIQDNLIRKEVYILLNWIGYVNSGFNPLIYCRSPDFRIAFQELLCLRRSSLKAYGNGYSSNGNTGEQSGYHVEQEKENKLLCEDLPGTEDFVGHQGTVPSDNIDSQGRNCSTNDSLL

[29] = biological target: NPBWR1 (Homo sapiens, UniProt P48145); experiment: gpcrMAX PathHunter beta-arrestin
[30] = biological target: HTR2C (Homo sapiens, UniProt P28335); experiment: gpcrMAX PathHunter beta-arrestin
Sequence of HTR2C (P28335 33-458): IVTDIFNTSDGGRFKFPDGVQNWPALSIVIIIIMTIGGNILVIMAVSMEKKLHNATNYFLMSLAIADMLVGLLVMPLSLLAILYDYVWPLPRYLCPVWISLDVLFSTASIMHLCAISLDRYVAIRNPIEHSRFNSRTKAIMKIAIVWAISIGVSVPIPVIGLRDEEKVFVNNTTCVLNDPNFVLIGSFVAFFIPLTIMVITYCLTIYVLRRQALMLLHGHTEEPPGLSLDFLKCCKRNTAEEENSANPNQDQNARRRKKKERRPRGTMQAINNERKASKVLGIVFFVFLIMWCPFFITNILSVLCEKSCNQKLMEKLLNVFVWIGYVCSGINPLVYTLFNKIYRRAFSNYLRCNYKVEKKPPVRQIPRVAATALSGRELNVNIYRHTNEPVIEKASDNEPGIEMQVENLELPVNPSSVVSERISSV

Sequence of SSTR1 (P30872 whole entry): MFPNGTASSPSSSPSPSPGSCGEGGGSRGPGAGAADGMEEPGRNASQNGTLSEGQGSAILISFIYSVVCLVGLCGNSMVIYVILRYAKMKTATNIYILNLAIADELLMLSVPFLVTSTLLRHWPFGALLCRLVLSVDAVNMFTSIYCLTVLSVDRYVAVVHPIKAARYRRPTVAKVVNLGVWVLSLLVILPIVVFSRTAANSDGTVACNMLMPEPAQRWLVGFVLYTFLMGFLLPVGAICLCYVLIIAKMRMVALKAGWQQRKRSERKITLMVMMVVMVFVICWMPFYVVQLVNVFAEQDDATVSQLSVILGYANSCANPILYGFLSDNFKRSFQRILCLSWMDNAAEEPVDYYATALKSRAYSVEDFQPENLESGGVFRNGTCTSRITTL
Sequence of TRHR (P34981 whole entry): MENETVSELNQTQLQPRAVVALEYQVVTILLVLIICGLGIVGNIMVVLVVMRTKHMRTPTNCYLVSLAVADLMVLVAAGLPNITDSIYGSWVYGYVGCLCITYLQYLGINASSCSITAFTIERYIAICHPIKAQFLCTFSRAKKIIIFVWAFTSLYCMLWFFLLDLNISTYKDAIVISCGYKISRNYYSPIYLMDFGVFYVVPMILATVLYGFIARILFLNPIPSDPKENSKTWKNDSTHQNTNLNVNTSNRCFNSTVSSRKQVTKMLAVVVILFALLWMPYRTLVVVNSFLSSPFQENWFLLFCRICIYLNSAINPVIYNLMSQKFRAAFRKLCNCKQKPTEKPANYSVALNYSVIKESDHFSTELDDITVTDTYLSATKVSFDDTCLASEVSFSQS

Cc1c(Cl)cccc1NC(=O)c1sc2nc3c(cc2c1N)C(=O)CCC3 [Compound 1]
inhibition at 10 µM [1]: 13%
inhibition at 10 µM [2]: -9%
inhibition at 10 µM [3]: -62%
inhibition at 10 µM [4]: -2%
inhibition at 10 µM [5]: 4%
inhibition at 10 µM [6]: 28%
inhibition at 10 µM [7]: -23%
inhibition at 10 µM [8]: 4%
GI50 [9]: 51.8 nM
inhibition at 10 µM [10]: 12%
inhibition at 10 µM [11]: -13%
inhibition at 10 µM [12]: 7%
inhibition at 10 µM [13]: 7%
GI50 [14]: 80.3 nM
inhibition at 10 µM [15]: -7%
inhibition at 10 µM [16]: 20%
inhibition at 10 µM [17]: -5%
inhibition at 10 µM [18]: 26%
GI50 [19]: 306 nM
inhibition at 10 µM [20]: -27%
inhibition at 10 µM [21]: 16%
inhibition at 10 µM [22]: 14%
inhibition at 10 µM [23]: 23%
inhibition at 10 µM [24]: 13%
inhibition at 10 µM [25]: 8%
inhibition at 10 µM [26]: 11%
inhibition at 10 µM [27]: 11%
inhibition at 10 µM [28]: -46%
inhibition at 10 µM [29]: -14%
inhibition at 10 µM [30]: -4%
